We go through one molecule from article PMC11192564 (Cell metabolism, 2023).

Test [1] has as its target T1, Samtor (Mus musculus, UniProt Q8BXK4).
T1 sequence (Q8BXK4 1-403): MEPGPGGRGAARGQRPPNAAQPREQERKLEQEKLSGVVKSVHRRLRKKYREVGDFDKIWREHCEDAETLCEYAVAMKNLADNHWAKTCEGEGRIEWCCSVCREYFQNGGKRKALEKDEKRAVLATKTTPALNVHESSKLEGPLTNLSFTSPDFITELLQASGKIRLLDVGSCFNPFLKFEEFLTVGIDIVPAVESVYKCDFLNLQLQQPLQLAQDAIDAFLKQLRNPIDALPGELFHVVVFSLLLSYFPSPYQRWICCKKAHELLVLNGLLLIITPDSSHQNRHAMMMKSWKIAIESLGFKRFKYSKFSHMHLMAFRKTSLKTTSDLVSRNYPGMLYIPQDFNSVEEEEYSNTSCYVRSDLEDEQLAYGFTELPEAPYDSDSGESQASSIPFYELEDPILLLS
As to the kind of experiment: microscale thermophoresis. Format: binding. In general terms: MST reads how a fluorescent partner responds to local heating, with and without ligand.

The target in test [2] is T2, SAMTOR (Homo sapiens, UniProt Q1RMZ1).
T2 sequence (Q1RMZ1 1-405): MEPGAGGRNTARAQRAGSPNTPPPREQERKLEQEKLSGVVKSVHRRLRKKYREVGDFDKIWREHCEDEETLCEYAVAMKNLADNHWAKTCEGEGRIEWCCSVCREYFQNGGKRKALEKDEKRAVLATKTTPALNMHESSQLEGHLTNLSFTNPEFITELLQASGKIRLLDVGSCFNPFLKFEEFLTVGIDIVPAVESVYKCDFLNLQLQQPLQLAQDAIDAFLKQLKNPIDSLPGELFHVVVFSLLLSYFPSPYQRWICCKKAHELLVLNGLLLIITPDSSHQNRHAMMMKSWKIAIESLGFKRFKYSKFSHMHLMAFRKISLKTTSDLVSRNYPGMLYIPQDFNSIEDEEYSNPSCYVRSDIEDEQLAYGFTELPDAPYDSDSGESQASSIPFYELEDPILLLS
As to the kind of experiment: microscale thermophoresis. It counts as binding.

As a reminder, the Kd is the constant that tells how readily two partners part at equilibrium. Read a high Kd as a looser complex. As to `C[S+](CC[C@H](N)C(=O)[O-])C[C@H]1O[C@@H](n2cnc3c(N)ncnc32)[C@H](O)[C@@H]1O` (some centres unmarked) [SAM], the values for the Kd at Samtor [1] and at SAMTOR [2] were around 10 µM and around 7 µM, respectively.
